# According to ChEMBL document CHEMBL1201862, “PubChem BioAssay data set” (2004):
# “And” between values parts separate entries of the source, which are not always exact repeats. Equal values may be shown once.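 Growth conditions: 96-well plates. Treatment: test compound, 48 hours, 5 concentrations. Analysis: linear interpolation between bracketing concentrations; unreached endpoints set to highest concentration. At the GI50, growth is halved.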 The source made the active and inactive calls. Cut-off read from the data, not from the text of the source: active = GI50 up to about 1.1 µM and inactive = higher.
# Tests used:
# Test in all cases: inhibition of tumour cell growth, NCI panel, 48 h
# RPMI-8226 = system: RPMI-8226
# CAKI-1 = system: CAKI-1
# SN12C = system: SN12C
# RXF 393 = system: RXF 393
# MOLT-4 = system: MOLT-4
# KM12 = system: KM12
# SNB-19 = system: SNB-19
# 786-0 = system: 786-0
# K562 = system: K562
# Hs-578T = system: Hs-578T
# SK-MEL-5 = system: SK-MEL-5
# UACC-257 = system: UACC-257
# SF-268 = system: SF-268
# NCI/ADR-RES = system: NCI/ADR-RES
# MDA-N = system: MDA-N
# A549 = system: A549
# PC-3 = system: PC-3
# MDA-MB-435 = system: MDA-MB-435
# UACC-62 = system: UACC-62
SMILES,GI50 (RPMI-8226),GI50 (CAKI-1),GI50 (SN12C),GI50 (RXF 393),GI50 (MOLT-4),GI50 (KM12),GI50 (SNB-19),GI50 (786-0),GI50 (K562),GI50 (Hs-578T),GI50 (SK-MEL-5),GI50 (UACC-257),GI50 (SF-268),GI50 (NCI/ADR-RES),GI50 (MDA-N),GI50 (A549),GI50 (PC-3),GI50 (MDA-MB-435),GI50 (UACC-62)
COc1ccc2nc3cccc([N+](=O)[O-])c3c(NCCN(C)C)c2c1,0.0318 µM (active),0.18 µM (active),0.11 µM (active),0.0851 µM (active),0.103 µM (active),0.158 µM (active),0.282 µM (active),0.0902 µM (active),0.0292 µM (active),0.242 µM (active),0.102 µM (active),0.191 µM (active),0.145 µM (active),0.138 µM (active),0.124 µM (active),0.0515 µM (active),0.108 µM (active),0.0826 µM (active),–
Nc1nc(Cl)c(CO)c(NCC2(CO)CCC2)n1,> 100 µM (inactive),> 100 µM (inactive),> 100 µM (inactive),> 100 µM (inactive),> 100 µM (inactive),75.7 µM (inactive),94.2 µM (inactive),> 100 µM (inactive),> 100 µM (inactive),> 100 µM (inactive),> 100 µM (inactive),> 100 µM (inactive),> 100 µM (inactive),> 100 µM (inactive),> 100 µM (inactive),> 100 µM (inactive),88.7 µM (inactive),> 100 µM (inactive),–
COc1cccc(NC(=O)CC(=O)N2N=C(C)C(/N=N/c3ccc(S(=O)(=O)CCOS(=O)(=O)O)cc3)C2=O)c1 (stereo not drawn),2.75 µM (inactive),2.45 µM (inactive),5.05 µM (inactive),4.06 µM (inactive),2.26 µM (inactive),11.6 µM (inactive),17 µM (inactive),2.74 µM (inactive),2.18 µM (inactive),14 µM (inactive),3.52 µM (inactive),8.93 µM (inactive),7.82 µM (inactive),4.2 µM (inactive),3.69 µM (inactive),18.9 µM (inactive),3.85 µM (inactive),2.65 µM (inactive),–
O=C(/C=C/c1ccsc1)c1cccs1,–,27.3 µM (inactive),19.5 µM (inactive),18.9 µM (inactive),> 10 µM (inactive),19.4 µM (inactive),42.6 µM (inactive),49.3 µM (inactive),28.2 µM (inactive),40.3 µM (inactive),14.6 µM (inactive),66.8 µM (inactive),28.2 µM (inactive),20.7 µM (inactive),35 µM (inactive),33 µM (inactive),69.5 µM (inactive),> 10 µM (inactive),25.4 µM (inactive)
Clc1ccccc1NN(Cc1ccncc1)c1ccccc1Cl,10.8 µM (inactive),–,13.6 µM (inactive),16 µM (inactive),15.5 µM (inactive),18 µM (inactive),17.3 µM (inactive),13.7 µM (inactive),10.4 µM (inactive),18.2 µM (inactive),13.9 µM (inactive),–,18.1 µM (inactive),13.8 µM (inactive),13.5 µM (inactive),12.5 µM (inactive),15 µM (inactive),15.2 µM (inactive),13.2 µM (inactive)
Cc1ccc(S(=O)(=O)Oc2ccc(OS(=O)(=O)c3ccc(C)cc3)c3c2C(=O)c2ccccc2C3=O)cc1,–,> 100 µM (inactive),> 100 µM (inactive),23.6 µM (inactive),> 100 µM (inactive),> 100 µM (inactive),54.6 µM (inactive),50.7 µM (inactive),> 100 µM (inactive),38.7 µM (inactive),> 100 µM (inactive),> 100 µM (inactive),> 100 µM (inactive),> 100 µM (inactive),> 100 µM (inactive),> 100 µM (inactive),> 100 µM (inactive),> 100 µM (inactive),> 100 µM (inactive)
CC1CCC2(C(=O)O)CCC3(C)C(=CCC4C5(C)CCC(O)C(C)(C)C5CCC43C)C2C1C (stereo not drawn),10.6 µM (inactive) and 7.1 µM (inactive),6 µM (inactive) and 3.7 µM (inactive),10.3 µM (inactive) and 18 µM (inactive),6.12 µM (inactive) and 11.4 µM (inactive),–,6.62 µM (inactive) and 9.29 µM (inactive),10.3 µM (inactive),4.63 µM (inactive),3.84 µM (inactive),8.71 µM (inactive),–,–,–,14.7 µM (inactive) and 11.2 µM (inactive),14.6 µM (inactive),–,15.8 µM (inactive),30.1 µM (inactive),19.6 µM (inactive) and 10.8 µM (inactive)
O=C(C[C@@H]1CCCN2CCCC[C@H]12)N1c2ccccc2Sc2ccc(Cl)cc21,20.2 µM (inactive),14.4 µM (inactive),16.7 µM (inactive),13.6 µM (inactive),11.8 µM (inactive),13.3 µM (inactive),16.1 µM (inactive),11.1 µM (inactive),13.8 µM (inactive),17.1 µM (inactive),11.7 µM (inactive),11.6 µM (inactive),19.2 µM (inactive),14.8 µM (inactive),16 µM (inactive),16.6 µM (inactive),13.2 µM (inactive),14.5 µM (inactive),–
Cc1cc2c(cc1Cl)Sc1nnc(C)n1S2(=O)=O,–,15.6 µM (inactive),14.8 µM (inactive),17.6 µM (inactive),14.4 µM (inactive),15.5 µM (inactive),23.5 µM (inactive),16.1 µM (inactive),13.8 µM (inactive),28.9 µM (inactive),13.6 µM (inactive),13.9 µM (inactive),14.9 µM (inactive),27 µM (inactive),13.8 µM (inactive),25.1 µM (inactive),15 µM (inactive),13 µM (inactive),15 µM (inactive)
COc1cc(/C=C/c2ccnc3ccccc23)cc(OC)c1OC,3.72 µM (inactive),3.7 µM (inactive),3.56 µM (inactive),1.63 µM (inactive),2.92 µM (inactive),3.23 µM (inactive),10.4 µM (inactive),8.97 µM (inactive),–,3.85 µM (inactive),2.45 µM (inactive),5.27 µM (inactive),3.39 µM (inactive),2.46 µM (inactive),0.351 µM (active),4.52 µM (inactive),9.29 µM (inactive),0.413 µM (active),3.17 µM (inactive)
CCc1cc2c(cc1C(=O)CCC(=O)O)CC1(C2)Cc2cc(CC)c(C(=O)CCC(=O)O)cc2C1,63.1 µM (inactive),> 100 µM (inactive),> 100 µM (inactive),> 100 µM (inactive),> 100 µM (inactive),> 100 µM (inactive),> 100 µM (inactive),> 100 µM (inactive),91.2 µM (inactive),> 100 µM (inactive),> 100 µM (inactive),> 100 µM (inactive),82.4 µM (inactive),> 100 µM (inactive),> 100 µM (inactive),> 100 µM (inactive),> 100 µM (inactive),> 100 µM (inactive),–
